The source made the active and inactive calls. No cut-off for these calls is given here.
Experiments:
[1] = target: T1, Branched-chain-amino-acid aminotransferase, cytosolic (Homo sapiens, UniProt P54687); assay: Inhibition of BCATc (unknown origin)
T1 sequence (P54687 whole entry): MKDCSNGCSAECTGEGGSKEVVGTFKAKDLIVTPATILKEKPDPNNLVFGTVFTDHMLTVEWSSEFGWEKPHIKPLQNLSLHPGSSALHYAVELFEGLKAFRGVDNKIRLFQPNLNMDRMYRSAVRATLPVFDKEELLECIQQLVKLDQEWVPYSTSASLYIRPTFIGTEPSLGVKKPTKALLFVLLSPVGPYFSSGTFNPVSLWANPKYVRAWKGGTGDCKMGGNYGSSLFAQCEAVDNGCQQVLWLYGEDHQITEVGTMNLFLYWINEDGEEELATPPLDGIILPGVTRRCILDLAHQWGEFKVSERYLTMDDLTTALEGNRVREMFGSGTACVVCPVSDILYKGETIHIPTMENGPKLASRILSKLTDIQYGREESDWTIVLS

[2] = Clearance in mouse blood at 1 mg/kg, iv; assay type: ADME, organism-based
[3] = Half life of compound in mouse at 1 mg/kg, iv; assay type: ADME, organism-based; conditions: in vivo
[4] = Volume of distribution at steady state in mouse at 1 mg/kg, iv; assay type: ADME, organism-based; conditions: in vivo, read-out: Vdss
[5] = AUC (0 to infinity) in mouse at 5 mg/kg, po; assay type: ADME, organism-based; parameters: dose 5 mg/kg, route oral, time infinity; conditions: in vivo
[6] = Cmax in mouse at 5 mg/kg, po; assay type: ADME, organism-based; parameters: dose 5 mg/kg, route oral; conditions: in vivo
[7] = Oral bioavailability in mouse at 5 mg/kg; assay type: ADME, organism-based; conditions: in vivo
[8] = Plasma protein binding in mouse; assay type: ADME, cell-free; conditions: read-out: PPB (converted)
Mus musculus [9] = assay: Increase in luecine level in C57Black/6J mouse serum at 300 mg/kg, po administered 5 hrs post fasting state followed by refeeding of amino acid mixture at 30 mins post dose measured after 1 hr by HPLC method; assay type: functional, organism-based
Mus musculus [10] = assay: Increase in isoluecine level in C57Black/6J mouse serum at 300 mg/kg, po administered 5 hrs post fasting state followed by refeeding of amino acid mixture at 30 mins post dose measured after 1 hr by HPLC method; assay type: functional, organism-based
Mus musculus [11] = assay: Increase in valine level in C57Black/6J mouse serum at 300 mg/kg, po administered 5 hrs post fasting state followed by refeeding of amino acid mixture at 30 mins post dose measured after 1 hr by HPLC method; assay type: functional, organism-based
Mus musculus [12] = assay: Increase in luecine level in po dosed C57Black/6J mouse serum administered 5 hrs post fasting state followed by refeeding of amino acid mixture at 6 hrs post dose measured after 1 hr by HPLC method relative to vehicle control; assay type: functional, organism-based
Mus musculus [13] = assay: Increase in isoluecine level in po dosed C57Black/6J mouse serum administered 5 hrs post fasting state followed by refeeding of amino acid mixture at 6 hrs post dose measured after 1 hr by HPLC method relative to vehicle control; assay type: functional, organism-based
Mus musculus [14] = assay: Increase in valine level in po dosed C57Black/6J mouse serum administered 5 hrs post fasting state followed by refeeding of amino acid mixture at 6 hrs post dose measured after 1 hr by HPLC method relative to vehicle control; assay type: functional, organism-based

Compound	IC50 [1] [nM]	clearance [2] [mL/min/kg]	half-life [3] [h]	Vd [4] [L/kg]	AUC(0-inf) [5] [ng·h/mL]	Cmax [6] [ng/mL]	bioavailability [7] [%]	fraction unbound [8]	Activity (Mus musculus [9])	Activity (Mus musculus [10])	Activity (Mus musculus [11])	Activity (Mus musculus [12])	Activity (Mus musculus [13])	Activity (Mus musculus [14])
CNC(=O)c1ccc2c(c1)nc(-c1ccccn1)n2[C@@H]1CCC[C@H](NC(=O)c2ccc(Br)s2)C1 (relative stereo)	3980	4	3.7	0.9	5810	1650	28	0.029	Active	Active	Active	Dose-dependent effect	Dose-dependent effect	Dose-dependent effect
CNC(=O)c1ccc2c(c1)nc(-c1ccccc1SC)n2[C@@H]1CCC[C@H](NC(=O)c2ccc(Br)s2)C1 (relative stereo)	1260	23	1.4	1.3	338	129	10	0.005	–	–	–	–	–	–

Source: ChEMBL document CHEMBL3808314, “Discovery and Optimization of Potent, Selective, and in Vivo Efficacious 2-Aryl Benzimidazole BCATm Inhibitors” (ACS Med Chem Lett, 2016)
